Publication PMC6010140, “Design, synthesis and docking study of novel coumarin ligands as potential selective acetylcholinesterase inhibitors” (Journal of Enzyme Inhibition and Medicinal Chemistry, 2017)
Entries after “also recorded” stand apart in the source; their conditions may differ. Read-outs that look alike come from different tables or passages of the source.

Tests used:
AChE [1] = conditions: cited from earlier work
BuChE = conditions: cited from earlier work
AChE [2] = biological target: AChE (Electrophorus electricus, UniProt O42275); conditions: Lineweaver-Burk plot
Description: The plots were assessed by a weighted least-squares analysis that assumed the variance of velocity (v) to be a constant percentage of v for the entire data set.

Chain of AChE (Electrophorus electricus, UniProt O42275) (O42275 24-633): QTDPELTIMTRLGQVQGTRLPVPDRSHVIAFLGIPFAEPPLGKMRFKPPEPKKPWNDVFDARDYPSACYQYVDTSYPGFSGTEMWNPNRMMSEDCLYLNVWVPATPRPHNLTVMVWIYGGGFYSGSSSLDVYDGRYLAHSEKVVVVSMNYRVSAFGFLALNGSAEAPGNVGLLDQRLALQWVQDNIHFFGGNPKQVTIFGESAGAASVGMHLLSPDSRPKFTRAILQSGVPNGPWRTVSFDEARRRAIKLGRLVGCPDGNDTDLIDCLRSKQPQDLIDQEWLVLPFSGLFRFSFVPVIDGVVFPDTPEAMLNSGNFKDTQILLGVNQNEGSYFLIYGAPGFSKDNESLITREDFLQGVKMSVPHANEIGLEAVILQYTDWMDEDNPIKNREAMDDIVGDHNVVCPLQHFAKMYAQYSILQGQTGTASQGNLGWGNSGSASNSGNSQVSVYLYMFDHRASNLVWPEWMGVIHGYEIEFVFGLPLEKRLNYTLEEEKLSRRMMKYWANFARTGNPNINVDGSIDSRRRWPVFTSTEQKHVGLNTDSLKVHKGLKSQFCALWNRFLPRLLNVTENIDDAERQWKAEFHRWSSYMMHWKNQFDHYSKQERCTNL

Row | SMILES | IC50 (AChE [1]; authors' previous work) [µM] | IC50 (BuChE) [µM] | further results
1 | COc1cccc2cc(-c3csc(NC(=S)Nc4ccc(Cl)cc4)n3)c(=O)oc12 [PBI-2] | 4.58 | – | –
4 | O=C(Nc1nc(-c2cc3cc(Br)ccc3o2)cs1)Nc1ccccc1F [PBI-1] | 3.85 | – | –
5 | CCN(CC)CC(=O)Nc1nc(-c2cc3ccccc3oc2=O)cs1 [Compound 6c, 2-(Diethylamino)-N-(4-(2-oxo-2H-chromen-3-yl)thiazol-2-yl)acetamide] | – | – | type of AChE inhibition (AChE [2]): mixed-type inhibitor; also recorded: mixed-type inhibition
